Laboratory results published in patent US20040071707A1, “Modulation of cell growth” (priority 2000, published 2004).

Tested on: HUVEC
Experiment: In vitro endothelial cell proliferation assay
Type: cell-based, Human
Settings: for effect on anti-kringle 2 (7VPA) induced HUVEC proliferation: HUVEC stimulated with 700 nM (or 1400 nM) 7VPA, simultaneous addition
Protocol: Human umbilical vein endothelial cells (HUVEC) were purchased from Clonetics or isolated from umbilical vein cords by mild collagenase treatment as described and cultured in M199 with Earle's salts (Sigma) with 20% heat inactivated fetal bovine serum (Sigma), 100 IU/mL penicillin 100 μg/mL streptomycin (Gibco), 250 ng/mL fungizone (Gibco), 2 mM glutamine (Gibco), 5 IU/mL heparin (Sigma) and 50 μg/mL ECGS (Technoclone, Vienna, Austria). Human vascular smooth muscle cells (HVSMC) were isolated as described.
3×10^3 cells were plated in 96-well plates and allowed to attach overnight. Growth was arrested by incubation with 100 μL reduced growth medium (M199 with 2% FBS) for 24 h. Thereafter anti-tPA antibodies and other reagents were added to wells. K2P (Reteplase), anti-kringle 2 (7VPA) and anti-finger/EGF antibodies (3VPA and 6VPA) were a gift from Technoclone, Vienna, Austria. Anti-kringle 1 (PAM-2), anti-kringle 2 (ESP1) and anti-protease (374B and ESP2) antibodies were purchased from American Diagnostica, Alpha Labs, UK. D-mannitol and LY294002 were obtained from Sigma. VEGF121 and bFGF were purchased from R&D Systems Inc., UK. Recombinant single chain tPA (rsctPA) was obtained from Boehringher Ingelheim. The mutant alatPA was kindly provided by Prof. Roger Lijnen (Center for Molecular and Vascular Biology, Leuven, Belgium). Aprotinin was purchased from Boehringer Mannheim. The tPA peptides (tPA I and tPA II) corresponding to residues 7-17 and 15-26 respectively were synthesized by the Clinical Sciences Centre peptide synthesis facility at Hammersmith and the ICRF peptide unit. Rp-cAMPS and Lavendustin A were obtained from Calbiochem, UK. After 4 days of incubation cell number was quantified colorimetrically by the addition of 20 μL CellTiter 96 AQueous One Solution Cell Proliferation Assay (Promega) at 492 nm and 620 nm reference filter. Background absorbance was determined with substrate alone and subtracted from all wells.
HUVEC were plated at 1×10^5 cells in 12 well plates overnight. Medium was replaced with reduced growth medium overnight followed by addition of anti-K2 antibody. Control wells contained M199 and 2% FBS alone. After 3 days incubation cells were counted in a hemocytometer.

## aprotinin [reference compound]
4 days
  effect on anti-kringle 2 (7VPA) induced HUVEC proliferation: could not block

## angiostatin [reference compound]
HUVEC growth, bFGF 10 ng/mL (FIG. 4B)
  concentration giving 50% inhibition: 45 µg/mL

## Nc1ncnc2c1ncn2[C@@H]1O[C@@H]2CO[P@@](O)(=S)O[C@H]2[C@H]1O [Rp-cAMPS, reference compound]
4 days
  effect on anti-kringle 2 (7VPA) induced HUVEC proliferation: could inhibit

## O=C(O)c1cc(N(Cc2ccccc2O)Cc2cc(O)ccc2O)ccc1O [Lavendustin A, reference compound]
4 days
  effect on anti-kringle 2 (7VPA) induced HUVEC proliferation: could inhibit

## OC[C@@H](O)[C@@H](O)[C@H](O)[C@H](O)CO [mannitol, D-mannitol, reference compound]
M199 with 2% FBS, 4 days, colorimetric
  effect on basal HUVEC/EC growth (substance alone): No effect
